Experimental data reported in publication PMC7022378, “Structural Analyses on the Deamidation of N-Terminal Asn in the Human N-Degron Pathway” (Biomolecules, 2020).
Residue numbers refer to the chain shown, from its start.

Columns and labels:
Type in all cases: biochemical
NTAN1 T255A = biological target: T1, NTAN1 T255A (Homo sapiens, UniProt Q96AB6, T255A); test: In vitro deamidation assay, NTAN1 T255A mutant; conditions: substrate NRAAA, 100 μM, 37 °C, pH 7.0, LC-MS (Figure 3c); three independent experiments
T1 construct: The gene for full-length NTAN1 was cloned into pET-21a(+); made in house; host or cells: E. coli Rosetta 2(DE3)
T1 sequence (Q96AB6 1-310 T255A): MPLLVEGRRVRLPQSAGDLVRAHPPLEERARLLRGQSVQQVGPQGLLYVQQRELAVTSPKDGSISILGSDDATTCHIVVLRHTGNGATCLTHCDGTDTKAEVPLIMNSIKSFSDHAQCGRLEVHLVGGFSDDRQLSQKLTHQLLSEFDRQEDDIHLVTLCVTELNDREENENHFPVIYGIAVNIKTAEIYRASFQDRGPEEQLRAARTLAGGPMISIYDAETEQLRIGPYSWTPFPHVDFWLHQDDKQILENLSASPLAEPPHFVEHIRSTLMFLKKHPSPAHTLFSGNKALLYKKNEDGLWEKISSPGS
Excerpt: (§1) NTAN1 mutants were constructed using QuikChange Ⅱ Site-Directed Mutagenesis Kit (Agilent Technologies, Santa Clara, CA, USA). NTAN1 mutants, Q51A, S69A, T73A, T74A, C75A, H92A, S254A, T255A, and E260A were generated. The mutants were expressed and purified as for NTAN1.
(§2) Peptides with Nt-Asn which mimic potential substrates of NTAN1 were synthesized: NRA, NRAA, NRAAA, NRQVA, NRQVAA, NRQVAAA, NFAAR, NLAAR, NRAAR, NAAAR, NNAAR, NPAAR, NGAAR, and NDAAR. Non-Nt-Asn peptides, QRAAA and VRAAA, were also synthesized. NTAN1 (at concentrations of 0.5 μM, 0.16 μM, or 0.04 μM) and the peptides (at a concentration of 100 μM) were mixed and incubated at 37 °C in a buffer containing 200 mM NaCl and 10 mM HEPES-NaOH (pH 7.0). […] The deamidation coefficient of peptides catalyzed by NTAN1 was assessed by the slope of exponential curve drawn from the concentration of the substrate over incubation time.
(§3) The peptides were quantified by an LC-MS system (1260 Infinity/6430 Triple Quad, Agilent Technologies) equipped with a binary pump (G1312B), a thermostated column compartment (G1316C), a thermostat (G1330B), and an autosampler (G1367E). […] The data acquisition and processing were performed by using MassHunter Workstation Software Quantitative Analysis (Version B.05.00; Agilent Technologies, Santa Clara, CA, USA). […]

NTAN1 T74A = biological target: T2, NTAN1 T74A (Homo sapiens, UniProt Q96AB6, T74A); test: In vitro deamidation assay, NTAN1 T74A mutant; conditions: substrate NRAAA, 100 μM, 37 °C, pH 7.0, LC-MS (Figure 3f); three independent experiments
T2 construct: The gene for full-length NTAN1 was cloned into pET-21a(+); made in house; host or cells: E. coli Rosetta 2(DE3)
T2 sequence (Q96AB6 1-310 T74A): T1 sequence (Q96AB6 1-310 T255A) with T74A, A255T
Excerpt: as §1, §2, §3

NTAN1 T73A = biological target: T3, NTAN1 T73A (Homo sapiens, UniProt Q96AB6, T73A); test: In vitro deamidation assay, NTAN1 T73A mutant; conditions: substrate NRAAA, 100 μM, 37 °C, pH 7.0, LC-MS (Figure 3g); three independent experiments
T3 construct: The gene for full-length NTAN1 was cloned into pET-21a(+); made in house; host or cells: E. coli Rosetta 2(DE3)
T3 sequence (Q96AB6 1-310 T73A): T1 sequence (Q96AB6 1-310 T255A) with T73A, A255T
Excerpt: as §1, §2, §3

NTAN1 Q51A = biological target: T4, NTAN1 Q51A (Homo sapiens, UniProt Q96AB6, Q51A); test: In vitro deamidation assay, NTAN1 Q51A mutant; conditions: substrate NRAAA, 100 μM, 37 °C, pH 7.0, LC-MS (Figure 3e); three independent experiments
T4 construct: The gene for full-length NTAN1 was cloned into pET-21a(+); made in house; host or cells: E. coli Rosetta 2(DE3)
T4 sequence (Q96AB6 1-310 Q51A): T1 sequence (Q96AB6 1-310 T255A) with Q51A, A255T
Excerpt: as §1, §2, §3

NRAAA [synthesized peptide with Nt-Asn, 5 mer model substrate of NTAN1]
Enzymatic activity of NTAN1 T255A (NTAN1 T255A): abolished | Enzymatic activity of NTAN1 T74A (NTAN1 T74A): abolished | Enzymatic activity of NTAN1 T73A (NTAN1 T73A): abolished | Deamidation activity of NTAN1 Q51A (NTAN1 Q51A): lost most deamidation activity
